pIC50: −log10 of the molar value. Counter-ions that a name gives are not always drawn.
What was measured:
THP-1 = assay: cells; assay type: functional, cell-based, Homo sapiens
Description: SANGER: Inhibition of human THP-1 cell growth in a cell viability assay.

REH = assay: cells; assay type: functional, cell-based, Homo sapiens
Description: SANGER: Inhibition of human REH cell growth in a cell viability assay.

CAL-148 = assay: cells; assay type: functional, cell-based, Homo sapiens
Description: SANGER: Inhibition of human CAL-148 cell growth in a cell viability assay.

MC-IXC = assay: cells; assay type: functional, cell-based, Homo sapiens
Description: SANGER: Inhibition of human MC-IXC cell growth in a cell viability assay.

GAMG = assay: cells; assay type: functional, cell-based, Homo sapiens
Description: SANGER: Inhibition of human GAMG cell growth in a cell viability assay.

CWR22R = assay: cells; assay type: functional, cell-based, Homo sapiens
Description: SANGER: Inhibition of human 22RV1 cell growth in a cell viability assay.

NCI-H1563 = assay: cells; assay type: functional, cell-based, Homo sapiens
Description: SANGER: Inhibition of human NCI-H1563 cell growth in a cell viability assay.

RCM-1 = assay: cells; assay type: functional, cell-based, Homo sapiens
Description: SANGER: Inhibition of human RCM-1 cell growth in a cell viability assay.

NCI-H2452 = assay: cells; assay type: functional, cell-based, Homo sapiens
Description: SANGER: Inhibition of human NCI-H2452 cell growth in a cell viability assay.

NCI-H748 = assay: cells; assay type: functional, cell-based, Homo sapiens
Description: SANGER: Inhibition of human NCI-H748 cell growth in a cell viability assay.

HLE = assay: cells; assay type: functional, cell-based, Homo sapiens
Description: SANGER: Inhibition of human HLE cell growth in a cell viability assay.

Daudi = assay: cells; assay type: functional, cell-based, Homo sapiens
Description: SANGER: Inhibition of human Daudi cell growth in a cell viability assay.

OVCAR-5 = assay: cells; assay type: functional, cell-based, Homo sapiens
Description: SANGER: Inhibition of human OVCAR-5 cell growth in a cell viability assay.

ESS-1 = assay: cells; assay type: functional, cell-based, Homo sapiens
Description: SANGER: Inhibition of human ESS-1 cell growth in a cell viability assay.

SIG-M5 = assay: cells; assay type: functional, cell-based, Homo sapiens
Description: SANGER: Inhibition of human SIG-M5 cell growth in a cell viability assay.

SKG-IIIa = assay: cells; assay type: functional, cell-based, Homo sapiens
Description: SANGER: Inhibition of human SKG-IIIa cell growth in a cell viability assay.

SNU-449 = assay: cells; assay type: functional, cell-based, Homo sapiens
Description: SANGER: Inhibition of human SNU-449 cell growth in a cell viability assay.

NCI-H322M = assay: cells; assay type: functional, cell-based, Homo sapiens
Description: SANGER: Inhibition of human NCI-H322M cell growth in a cell viability assay.

RL = assay: cells; assay type: functional, cell-based, Homo sapiens
Description: SANGER: Inhibition of human RL cell growth in a cell viability assay.

M14 = assay: cells; assay type: functional, cell-based, Homo sapiens
Description: SANGER: Inhibition of human M14 cell growth in a cell viability assay.

MKN-45 = assay: cells; assay type: functional, cell-based, Homo sapiens
Description: SANGER: Inhibition of human MKN45 cell growth in a cell viability assay.

SCLC-21H = assay: cells; assay type: functional, cell-based, Homo sapiens
Description: SANGER: Inhibition of human SCLC-21H cell growth in a cell viability assay.

NY = assay: cells; assay type: functional, cell-based, Homo sapiens
Description: SANGER: Inhibition of human NY cell growth in a cell viability assay.

NCI-H2171 = assay: cells; assay type: functional, cell-based, Homo sapiens
Description: SANGER: Inhibition of human NCI-H2171 cell growth in a cell viability assay.

PF-382 = assay: cells; assay type: functional, cell-based, Homo sapiens
Description: SANGER: Inhibition of human PF-382 cell growth in a cell viability assay.

HCT-116 = assay: cells; assay type: functional, cell-based, Homo sapiens
Description: SANGER: Inhibition of human HCT-116 cell growth in a cell viability assay.

MC-CAR = assay: cells; assay type: functional, cell-based, Homo sapiens
Description: SANGER: Inhibition of human MC-CAR cell growth in a cell viability assay.

SW1573 = assay: cells; assay type: functional, cell-based, Homo sapiens
Description: SANGER: Inhibition of human SW1573 cell growth in a cell viability assay.

KOSC-2 = assay: cells; assay type: functional, cell-based, Homo sapiens
Description: SANGER: Inhibition of human KOSC-2 cell growth in a cell viability assay.

ABC-1 = assay: cells; assay type: functional, cell-based, Homo sapiens
Description: SANGER: Inhibition of human ABC-1 cell growth in a cell viability assay.

Raji = assay: cells; assay type: functional, cell-based, Homo sapiens
Description: SANGER: Inhibition of human Raji cell growth in a cell viability assay.

CAL-39 = assay: cells; assay type: functional, cell-based, Homo sapiens
Description: SANGER: Inhibition of human CAL-39 cell growth in a cell viability assay.

WSU-NHL = assay: cells; assay type: functional, cell-based, Homo sapiens
Description: SANGER: Inhibition of human WSU-NHL cell growth in a cell viability assay.

HPAF-II = assay: cells; assay type: functional, cell-based, Homo sapiens
Description: SANGER: Inhibition of human HPAF-II cell growth in a cell viability assay.

CP50-MEL-B = assay: cells; assay type: functional, cell-based, Homo sapiens
Description: SANGER: Inhibition of human CP50-MEL-B cell growth in a cell viability assay.

NCI-H716 = assay: cells; assay type: functional, cell-based, Homo sapiens
Description: SANGER: Inhibition of human NCI-H716 cell growth in a cell viability assay.

MDA-MB-175-VII = assay: cells; assay type: functional, cell-based, Homo sapiens
BC1 cell line = assay: SANGER: Inhibition of human BC-1 cell growth in a cell viability assay.; assay type: functional, cell-based
EB-3 = assay: cells; assay type: functional, cell-based, Homo sapiens
Description: SANGER: Inhibition of human EB-3 cell growth in a cell viability assay.

ARH-77 = assay: cells; assay type: functional, cell-based, Homo sapiens
Description: SANGER: Inhibition of human ARH-77 cell growth in a cell viability assay.

BFTC-909 = assay: cells; assay type: functional, cell-based, Homo sapiens
Description: SANGER: Inhibition of human BFTC-909 cell growth in a cell viability assay.

AN3-CA = assay: cells; assay type: functional, cell-based, Homo sapiens
Description: SANGER: Inhibition of human AN3-CA cell growth in a cell viability assay.

SK-LU-1 = assay: cells; assay type: functional, cell-based, Homo sapiens
Description: SANGER: Inhibition of human SK-LU-1 cell growth in a cell viability assay.

Daoy = assay: cells; assay type: functional, cell-based, Homo sapiens
Description: SANGER: Inhibition of human Daoy cell growth in a cell viability assay.

MFE-280 = assay: cells; assay type: functional, cell-based, Homo sapiens
Description: SANGER: Inhibition of human MFE-280 cell growth in a cell viability assay.

D-336MG = assay: cells; assay type: functional, cell-based, Homo sapiens; conditions: Homo sapiens, D-336MG
Description: SANGER: Inhibition of human D-336MG cell growth in a cell viability assay.

## COC1=CC(c2cc3ccccc3[nH]2)=N/C1=C\c1[nH]c(C)cc1C [OBATOCLAX MESYLATE]
THP-1; Homo sapiens, THP-1
  pIC50: 7.70
REH; Homo sapiens, REH
  pIC50: 7.33
CAL-148; Homo sapiens, CAL-148
  pIC50: 5.98
MC-IXC; Homo sapiens, MC-IXC
  pIC50: 6.46
GAMG; Homo sapiens, GAMG
  pIC50: 7.24
CWR22R; Homo sapiens, 22Rv1
  pIC50: 6.56
NCI-H1563; Homo sapiens, NCI-H1563
  pIC50: < 4.80
RCM-1; Homo sapiens, RCM-1
  pIC50: 6.24
NCI-H2452; Homo sapiens, NCI-H2452
  pIC50: < 4.80
NCI-H748; Homo sapiens, NCI-H748
  pIC50: 4.97
HLE; Homo sapiens, HLE
  pIC50: 6.77
Daudi; Homo sapiens, Daudi
  pIC50: 7.15
OVCAR-5; Homo sapiens, OVCAR-5
  pIC50: 6.51
ESS-1; Homo sapiens, ESS-1
  pIC50: 7.14
SIG-M5; Homo sapiens, SIG-M5
  pIC50: > 7.20
SKG-IIIa; Homo sapiens, SKG-IIIa
  pIC50: 5.33
SNU-449; Homo sapiens, SNU-449
  pIC50: 6.68
NCI-H322M; Homo sapiens, NCI-H322M
  pIC50: < 4.80
RL; Homo sapiens, RL
  pIC50: < 4.80
M14; Homo sapiens, M14
  pIC50: 6.34
MKN-45; Homo sapiens, MKN-45
  pIC50: 5.70
SCLC-21H; Homo sapiens, SCLC-21H
  pIC50: 4.92
NY; Homo sapiens, NY
  pIC50: 6.93
NCI-H2171; Homo sapiens, NCI-H2171
  pIC50: 6.07
PF-382; Homo sapiens, PF-382
  pIC50: 7.31
HCT-116; Homo sapiens, HCT-116
  pIC50: 7.06
MC-CAR; Homo sapiens, MC-CAR
  pIC50: 7.63
SW1573; Homo sapiens, SW1573
  pIC50: 5.69
KOSC-2; Homo sapiens, KOSC-2
  pIC50: 5.02
ABC-1; Homo sapiens, ABC-1
  pIC50: 6.30
Raji; Homo sapiens, Raji
  pIC50: 5.99
CAL-39; Homo sapiens, CAL-39
  pIC50: 6.64
WSU-NHL; Homo sapiens, WSU-NHL
  pIC50: 7.12
HPAF-II; Homo sapiens, HPAF-II
  pIC50: 5.71
CP50-MEL-B; Homo sapiens, CP50-MEL-B
  pIC50: 7.06
NCI-H716; Homo sapiens, NCI-H716
  pIC50: 5.77
MDA-MB-175-VII; Homo sapiens, MDA-MB-175-VII
  pIC50: 5.77
BC1 cell line; Homo sapiens, BC1
  pIC50: 7.22
EB-3; Homo sapiens, EB-3
  pIC50: 6.76
ARH-77; Homo sapiens, ARH-77
  pIC50: 6.96
BFTC-909; Homo sapiens, BFTC-909
  pIC50: 6.34
AN3-CA; Homo sapiens, AN3-CA
  pIC50: 6.81
SK-LU-1; Homo sapiens, SK-LU-1
  pIC50: 6.87
Daoy; Homo sapiens, Daoy
  pIC50: 7.25
MFE-280; Homo sapiens, MFE-280
  pIC50: 6.02

## BLEOMYCIN
THP-1; thp-1
  pIC50: 4.03
REH; reh
  pIC50: 7.87
CAL-148; cal-148
  pIC50: 5.34
MC-IXC; mc-ixc
  pIC50: 5.52
GAMG; gamg
  pIC50: 6.54
CWR22R; cwr22r
  pIC50: 5.13
NCI-H1563; nci-h1563
  pIC50: 4.69
RCM-1; rcm-1
  pIC50: 5.90
NCI-H2452; nci-h2452
  pIC50: 2.67
NCI-H748; nci-h748
  pIC50: 4.12
HLE; hle
  pIC50: 5.40
Daudi; daudi
  pIC50: 5.78
OVCAR-5; ovcar-5
  pIC50: 5.32
ESS-1; ess-1
  pIC50: 6.73
SIG-M5; sig-m5
  pIC50: 6.23
SKG-IIIa; skg-iiia
  pIC50: 3.86
SNU-449; snu-449
  pIC50: 6.41
NCI-H322M; nci-h322m
  pIC50: 2.14
RL; rl
  pIC50: 2.64
M14; m14
  pIC50: 5.49
MKN-45; mkn-45
  pIC50: 7.61
SCLC-21H; sclc-21h
  pIC50: 3.24
NY; ny
  pIC50: 5.23
NCI-H2171; nci-h2171
  pIC50: 2.85
PF-382; pf-382
  pIC50: 6.37
HCT-116; hct-116
  pIC50: 5.54
MC-CAR; mc-car
  pIC50: 5.85
SW1573; sw1573
  pIC50: 6.86
KOSC-2; kosc-2
  pIC50: 3.50
ABC-1; abc-1
  pIC50: 4.71
Raji; raji
  pIC50: 5.73
CAL-39; cal-39
  pIC50: 9.50
WSU-NHL; wsu-nhl
  pIC50: 4.50
HPAF-II; hpaf-ii
  pIC50: 3.63
CP50-MEL-B; cp50-mel-b
  pIC50: 2.40
NCI-H716; nci-h716
  pIC50: 2.85
MDA-MB-175-VII; mda-mb-175-vii
  pIC50: 5.82
BC1 cell line; bc1
  pIC50: 5.41
EB-3; eb-3
  pIC50: 4.66
ARH-77; arh-77
  pIC50: 6.98
BFTC-909; bftc-909
  pIC50: 7.86
AN3-CA; an3-ca
  pIC50: 5.59
SK-LU-1; sk-lu-1
  pIC50: 6.00
Daoy; daoy
  pIC50: 7.08
MFE-280; mfe-280
  pIC50: 3.44

## COc1cccc2c1C(=O)c1c(O)c3c(c(O)c1C2=O)C[C@@](O)(C(=O)CO)C[C@@H]3O[C@H]1C[C@H](N)[C@H](O)[C@H](C)O1 [DOXORUBICIN]
THP-1; Homo sapiens, THP-1
  pIC50: 6.00
REH; Homo sapiens, REH
  pIC50: 8.09
CAL-148; Homo sapiens, CAL-148
  pIC50: 7.57
MC-IXC; Homo sapiens, MC-IXC
  pIC50: 7.17
GAMG; Homo sapiens, GAMG
  pIC50: 7.22
CWR22R; Homo sapiens, 22Rv1
  pIC50: 7.67
NCI-H1563; Homo sapiens, NCI-H1563
  pIC50: 6.25
RCM-1; Homo sapiens, RCM-1
  pIC50: < 5.99
NCI-H2452; Homo sapiens, NCI-H2452
  pIC50: < 5.99
NCI-H748; Homo sapiens, NCI-H748
  pIC50: 6.83
HLE; Homo sapiens, HLE
  pIC50: 7.45
Daudi; Homo sapiens, Daudi
  pIC50: 7.16
OVCAR-5; Homo sapiens, OVCAR-5
  pIC50: 6.93
ESS-1; Homo sapiens, ESS-1
  pIC50: 7.96
SIG-M5; Homo sapiens, SIG-M5
  pIC50: 7.59
SKG-IIIa; Homo sapiens, SKG-IIIa
  pIC50: 6.51
SNU-449; Homo sapiens, SNU-449
  pIC50: 6.26
NCI-H322M; Homo sapiens, NCI-H322M
  pIC50: < 5.99
RL; Homo sapiens, RL
  pIC50: < 5.99
M14; Homo sapiens, M14
  pIC50: 6.04
MKN-45; Homo sapiens, MKN-45
  pIC50: 7.09
SCLC-21H; Homo sapiens, SCLC-21H
  pIC50: < 5.99
NY; Homo sapiens, NY
  pIC50: 6.64
NCI-H2171; Homo sapiens, NCI-H2171
  pIC50: 6.36
PF-382; Homo sapiens, PF-382
  pIC50: 7.17
MC-CAR; Homo sapiens, MC-CAR
  pIC50: 7.31
SW1573; Homo sapiens, SW1573
  pIC50: 7.08
KOSC-2; Homo sapiens, KOSC-2
  pIC50: 6.60
ABC-1; Homo sapiens, ABC-1
  pIC50: 7.08
Raji; Homo sapiens, Raji
  pIC50: 6.48
CAL-39; Homo sapiens, CAL-39
  pIC50: 7.01
WSU-NHL; Homo sapiens, WSU-NHL
  pIC50: 6.81
HPAF-II; Homo sapiens, HPAF-II
  pIC50: 6.28
CP50-MEL-B; Homo sapiens, CP50-MEL-B
  pIC50: < 5.99
NCI-H716; Homo sapiens, NCI-H716
  pIC50: < 5.99
MDA-MB-175-VII; Homo sapiens, MDA-MB-175-VII
  pIC50: 6.01
BC1 cell line; Homo sapiens, BC1
  pIC50: 7.06
EB-3; Homo sapiens, EB-3
  pIC50: 6.11
ARH-77; Homo sapiens, ARH-77
  pIC50: 6.96
BFTC-909; Homo sapiens, BFTC-909
  pIC50: 6.93
AN3-CA; Homo sapiens, AN3-CA
  pIC50: 7.14
SK-LU-1; Homo sapiens, SK-LU-1
  pIC50: 7.90
Daoy; Homo sapiens, Daoy
  pIC50: 8.09
MFE-280; Homo sapiens, MFE-280
  pIC50: < 5.99

## Cc1ccc(-c2c(C(=O)CCl)n(CCCO)c3ncnc(N)c23)cc1
THP-1; Homo sapiens, THP-1
  pIC50: < 5.40
REH; Homo sapiens, REH
  pIC50: < 5.40
CAL-148; Homo sapiens, CAL-148
  pIC50: < 5.40
NCI-H748; Homo sapiens, NCI-H748
  pIC50: < 5.40
Daudi; Homo sapiens, Daudi
  pIC50: < 5.40
SIG-M5; Homo sapiens, SIG-M5
  pIC50: < 5.40
NCI-H322M; Homo sapiens, NCI-H322M
  pIC50: < 5.40
RL; Homo sapiens, RL
  pIC50: < 5.40
SCLC-21H; Homo sapiens, SCLC-21H
  pIC50: < 5.40
NCI-H2171; Homo sapiens, NCI-H2171
  pIC50: < 5.40
PF-382; Homo sapiens, PF-382
  pIC50: 5.91
MC-CAR; Homo sapiens, MC-CAR
  pIC50: < 5.40
Raji; Homo sapiens, Raji
  pIC50: < 5.40
WSU-NHL; Homo sapiens, WSU-NHL
  pIC50: < 5.40
D-336MG
  pIC50: < 5.40
NCI-H716; Homo sapiens, NCI-H716
  pIC50: < 5.40
BC1 cell line; Homo sapiens, BC1
  pIC50: < 5.40
EB-3; Homo sapiens, EB-3
  pIC50: < 5.40
ARH-77; Homo sapiens, ARH-77
  pIC50: < 5.40

Reference: ChEMBL document CHEMBL1201861, “Genomics of Drug Sensitity in Cancer screening data, Wellcome Trust Sanger Institute”
